Source: paper PMC4686731, “Screening of Pharmacologically Active Small Molecule Compounds Identifies Antifungal Agents Against Candida Biofilms” (Frontiers in Microbiology, 2015)
Like-named read-outs stand apart in the source and are kept apart here.

System: human gingival fibroblast (hGF) cells
Experiment: Cytotoxicity, WST-1 cell counting assay
Experimental: Primary human gingival fibroblast (hGF) cultures were established from discarded healthy gingival tissues after surgery with the informed consent of the donors ([Nikawa et al., 2006]). In brief, the gingival tissue specimens were treated overnight with 0.025% trypsin and 0.02% EDTA at 4°C. After trypsin neutralization, the lamina propria mucosae were separated from the epithelial layer and minced into pieces in a plastic tissue culture dish, and then maintained in Dulbecco’s modified Eagle medium (Nacalai Tesque, Kyoto, Japan) supplemented with 10% FBS, 100 U/mL penicillin, […] and 250 ng/mL amphotericin B (Nacalai Tesque, Kyoto, Japan). After the fibroblasts had migrated out of the tissue, the tissues were removed and the cells were cultured until they reached confluence. The cells were then seeded onto 96-well tissue culture plates (500 cells per well) and the culture medium was exchanged with fresh growth medium containing the hit compounds (0.98–1000 μM). The cells were cultured continuously and the culture medium containing the hit compounds was renewed every other day. The number of cells was evaluated using the WST-1 cell counting assay (Dojindo Laboratories, Kumamoto, Japan), as described previously ([Hamada et al., 2007]). […] All the experiments were performed using three samples for each condition in triplicate.
To evaluate the safety for clinical use, we tested the cytotoxic effects of the hit compounds using human cell cultures. We used hGF cells because of their ubiquitous nature and their widespread use in cytotoxicity testing ([Egusa et al., 2009]; [LaFleur et al., 2011]). The hGF cells were grown in 96-well plates and exposed to increasing doses (two-fold increments) of each hit compound for 4 days. The hGF metabolic activity was measured every other day and used as an indicator of cell viability.

[1] = hGF cells, 4 days exposure, 50% reduction in cell number, WST-1

Row | Compound | cytotoxicity to hGF cells (in words) | Cytotoxic concentration (human, 4 days) | cytotoxicity to hGF cells (in words) (hGF cells) | Cytotoxic concentration [1]
1 | Cc1ccc(S(=O)(=O)/C=C/C#N)cc1 [Bay11-7082] | cytotoxic to hGF cells at low concentrations | 7.81 µM |  | 
2 | C[n+]1cc2c3c(ccc2c2ccc4cc5c(cc4c21)OCO5)OCO3 [Sanguinarine, Sanguinarine chloride hydrate] |  |  | cytotoxic to hGF cells at low concentrations | 0.73 µM
3 | CC(C)(C)c1ccc(S(=O)(=O)/C=C/C#N)cc1 [Bay11-7085] |  |  | cytotoxic to hGF cells at low concentrations | 7.81 µM
4 | Cc1c2ccncc2c(C)c2c1[nH]c1ccccc12 [Ellipticine] |  |  | cytotoxic to hGF cells at low concentrations | 1.95 µM
